Laboratory results reported in article PMC12486440, “Design, synthesis, and in silico studies of new benzofuran–pyrazole hybrids as multi-kinase inhibitors with potential antiproliferative activity” (RSC Advances, 2025).

Legend:
BT-549 = conditions: Homo sapiens, BT-549
Melanoma subpanel = assay: NCI 60 subpanel summary; format: cell-based, human
MDA-MB-231/ATCC = conditions: Homo sapiens
EGFR (WT) = target: T1, EGFR (WT) (Homo sapiens, UniProt P00533); assay: EGFR WT kinase inhibitory assay (HTRF); format: biochemical
T1 construct: purchased Sigma
T1 sequence (P00533 25-1210): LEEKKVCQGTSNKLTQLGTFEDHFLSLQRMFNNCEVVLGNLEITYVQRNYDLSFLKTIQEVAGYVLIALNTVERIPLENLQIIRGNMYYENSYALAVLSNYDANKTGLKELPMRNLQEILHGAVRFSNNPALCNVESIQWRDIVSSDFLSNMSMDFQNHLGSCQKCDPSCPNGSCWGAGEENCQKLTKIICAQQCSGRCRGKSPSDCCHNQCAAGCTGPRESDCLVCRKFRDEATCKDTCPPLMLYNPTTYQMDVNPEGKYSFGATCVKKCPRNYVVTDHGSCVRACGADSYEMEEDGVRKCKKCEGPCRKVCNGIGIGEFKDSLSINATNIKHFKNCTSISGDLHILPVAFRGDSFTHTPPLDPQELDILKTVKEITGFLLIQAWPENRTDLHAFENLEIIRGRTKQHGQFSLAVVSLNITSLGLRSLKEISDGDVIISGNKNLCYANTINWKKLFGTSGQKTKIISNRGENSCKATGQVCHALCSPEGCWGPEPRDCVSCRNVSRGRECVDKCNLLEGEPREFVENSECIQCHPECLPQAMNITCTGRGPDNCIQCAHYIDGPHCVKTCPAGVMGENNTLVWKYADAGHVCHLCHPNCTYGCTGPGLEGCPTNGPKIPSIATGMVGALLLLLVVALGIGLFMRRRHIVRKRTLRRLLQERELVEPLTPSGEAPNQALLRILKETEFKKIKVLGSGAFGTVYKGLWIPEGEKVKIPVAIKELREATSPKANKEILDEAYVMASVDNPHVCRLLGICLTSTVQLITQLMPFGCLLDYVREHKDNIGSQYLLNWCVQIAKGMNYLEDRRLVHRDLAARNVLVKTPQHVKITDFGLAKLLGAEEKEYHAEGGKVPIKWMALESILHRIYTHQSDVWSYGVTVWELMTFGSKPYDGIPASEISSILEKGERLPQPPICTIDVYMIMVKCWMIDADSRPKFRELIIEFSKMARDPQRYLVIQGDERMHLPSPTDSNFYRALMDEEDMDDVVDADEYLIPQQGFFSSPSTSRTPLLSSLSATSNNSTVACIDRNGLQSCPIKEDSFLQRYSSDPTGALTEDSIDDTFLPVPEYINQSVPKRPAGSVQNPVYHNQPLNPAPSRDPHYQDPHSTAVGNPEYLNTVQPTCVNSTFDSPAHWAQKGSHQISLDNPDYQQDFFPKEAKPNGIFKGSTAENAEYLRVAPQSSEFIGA

Breast cancer subpanel = assay: NCI 60 subpanel summary; format: cell-based, human
Ovarian cancer subpanel = assay: NCI 60 subpanel summary; format: cell-based, human
SK-OV-3 = conditions: single dose 10 μM; ovarian carcinoma
CNS cancer subpanel = assay: NCI 60 subpanel summary; format: cell-based, human
UACC-62 = conditions: Homo sapiens, UACC-62
VEGFR-2 = target: T2, VEGFR-2 (Homo sapiens, UniProt P35968); assay: VEGFR-2 kinase inhibitory assay (Kinase-Glo MAX); format: biochemical
T2 construct: purchased
T2 sequence (P35968 20-1356): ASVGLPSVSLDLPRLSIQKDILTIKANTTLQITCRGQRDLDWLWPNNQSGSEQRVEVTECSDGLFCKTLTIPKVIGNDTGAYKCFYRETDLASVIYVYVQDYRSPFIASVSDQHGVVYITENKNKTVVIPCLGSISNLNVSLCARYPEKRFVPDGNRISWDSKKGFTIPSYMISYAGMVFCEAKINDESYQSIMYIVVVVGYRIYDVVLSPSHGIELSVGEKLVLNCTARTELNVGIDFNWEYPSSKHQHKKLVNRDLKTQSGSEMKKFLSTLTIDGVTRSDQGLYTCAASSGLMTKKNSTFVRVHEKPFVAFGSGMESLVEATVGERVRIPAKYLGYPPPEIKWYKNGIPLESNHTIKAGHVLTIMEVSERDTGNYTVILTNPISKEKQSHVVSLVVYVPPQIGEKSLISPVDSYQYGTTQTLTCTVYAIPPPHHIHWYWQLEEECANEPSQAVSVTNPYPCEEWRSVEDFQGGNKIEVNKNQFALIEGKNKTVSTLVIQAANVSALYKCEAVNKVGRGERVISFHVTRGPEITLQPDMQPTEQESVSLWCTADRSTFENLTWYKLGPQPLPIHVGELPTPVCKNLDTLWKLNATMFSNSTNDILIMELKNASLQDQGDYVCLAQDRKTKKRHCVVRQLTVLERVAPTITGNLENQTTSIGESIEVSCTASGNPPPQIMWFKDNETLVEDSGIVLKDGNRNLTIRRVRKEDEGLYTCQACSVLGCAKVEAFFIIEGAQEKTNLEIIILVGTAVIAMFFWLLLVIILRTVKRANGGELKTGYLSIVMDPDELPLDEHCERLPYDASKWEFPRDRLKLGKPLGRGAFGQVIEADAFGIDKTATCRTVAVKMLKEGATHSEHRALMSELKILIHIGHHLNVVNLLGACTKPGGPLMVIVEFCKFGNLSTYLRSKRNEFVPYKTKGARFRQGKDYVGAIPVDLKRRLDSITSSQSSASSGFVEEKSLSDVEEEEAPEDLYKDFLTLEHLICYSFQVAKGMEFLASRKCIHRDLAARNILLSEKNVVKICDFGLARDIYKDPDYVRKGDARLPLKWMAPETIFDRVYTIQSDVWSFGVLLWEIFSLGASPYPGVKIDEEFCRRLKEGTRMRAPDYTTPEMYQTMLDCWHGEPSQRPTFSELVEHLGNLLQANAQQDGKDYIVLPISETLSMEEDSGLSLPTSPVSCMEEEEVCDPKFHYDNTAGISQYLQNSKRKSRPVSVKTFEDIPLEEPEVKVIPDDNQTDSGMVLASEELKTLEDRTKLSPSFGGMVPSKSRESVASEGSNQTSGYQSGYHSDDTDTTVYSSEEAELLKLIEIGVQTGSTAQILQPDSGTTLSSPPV

UO-31 = conditions: Homo sapiens, UO-31
Colon cancer subpanel = assay: NCI 60 subpanel summary; format: cell-based, human
[1] = single dose 10 μM, renal carcinoma
[2] = Homo sapiens, subpanel mean graph midpoint, read-out: MG-MID (GI50)
[3] = full panel MG-MID / subpanel MG-MID
[4] = single dose 10 μM, breast carcinoma
[5] = single dose 10 μM, prostate carcinoma
[6] = single dose 10 μM, non-small lung carcinoma

For `c1ccc(-n2cc(C3CC(c4nc5ccccc5[nH]4)=NN3)c(-c3cc4ccccc4o3)n2)cc1` (centres unmarked) [3d, 3-(Benzofuran-2-yl)-4-(3-(1H-benzo[d]imidazol-2-yl)-4,5-dihydro-1H-pyrazol-5-yl)-1-phenyl-1H-pyrazole], the GI50 (A498; Homo sapiens, A498) was 12.7 µM, the GI% (A498; [1]) was 54.33% and the GI50 (MALME-3M; Homo sapiens, Malme-3M) was 6.19 µM. It also gave a GI% (MALME-3M; single dose 10 μM, melanoma) of 81.85%, a GI50 (BT-549) of 3.85 µM and a GI50 (Melanoma subpanel; [2]) of 3.92 µM. For the same molecule, the Selectivity index (Melanoma subpanel; [3]) was 1.07, the GI50 (T-47D; Homo sapiens, T47D) was 3.12 µM and the GI% (T-47D; [4]) was 88.48%. It also gave a GI50 (MDA-MB-231/ATCC) of 4.78 µM, a GI50 (M14; Homo sapiens, M14) of 3.22 µM and a GI% (M14; single dose 10 μM, melanoma) of 83.05%. The IC50 (EGFR (WT)) was 0.398 µM, the “times more effective at suppressing EGFR (WT) than erlotinib” value (EGFR (WT); ratio of IC50 values) was 1.2 and the GI50 (Breast cancer subpanel; [2]) was 4.49 µM. It also gave a Selectivity index (Breast cancer subpanel; [3]) of 0.935, a GI50 (PC-3; Homo sapiens, PC-3) of 3.47 µM and a GI% (PC-3; [5]) of 91.14%. The GI50 (Ovarian cancer subpanel; [2]) was 4.32 µM, the Selectivity index (Ovarian cancer subpanel; [3]) was 0.97 and the GI50 (MCF7; Homo sapiens, MCF7) was 2.75 µM. It also gave a GI% (MCF7; [4]) of 85.98%, a GI50 (NCI-H23; Homo sapiens, NCI-H23) of 3.69 µM and a GI% (NCI-H23; [6]) of 78.78%. The GI% (SK-OV-3) was 62.21%, the GI50 (SNB-19; Homo sapiens, SNB-19) was 3.77 µM and the GI% (SNB-19; single dose 10 μM, CNS cancer) was 92.86%. The GI50 (CNS cancer subpanel; [2]) was 3.55 µM, the Selectivity index (CNS cancer subpanel; [3]) was 1.18 and the GI50 (786–0; Homo sapiens, 786-0) was 4.31 µM. The GI% (786–0; [1]) was 71.73%, the GI50 (MDA-MB-435; Homo sapiens, MDA-MB-435) was 4.24 µM and the GI% (MDA-MB-435; single dose 10 μM, melanoma) was 83.49%. For the same molecule, the GI50 (LOX IMVI; Homo sapiens, LOX IMVI) was 3.71 µM, the GI% (LOX IMVI; single dose 10 μM, melanoma) was 75.62% and the GI50 (UACC-62) was 1.84 µM. It also gave a GI50 (NCI-H460; Homo sapiens, NCI-H460) of 3.64 µM, a GI% (NCI-H460; [6]) of 97.07% and a GI50 (SF-268; Homo sapiens, SF-268) of 4.51 µM. For the same molecule, the GI% (SF-268; single dose 10 μM, CNS cancer) was 72.21%, the GI50 (NCI-H226; Homo sapiens, NCI-H226) was 6.62 µM and the GI% (NCI-H226; [6]) was 34.35%. For the same molecule, the GI50 (TK-10; Homo sapiens, TK-10) was 4.97 µM, the GI% (TK-10; [1]) was 75.14% and the GI50 (SF-295; Homo sapiens, SF-295) was 2.59 µM. The GI% (SF-295; single dose 10 μM, CNS cancer) was 84.73%, the IC50 (VEGFR-2) was 0.619 µM and the “times more effective at suppressing VEGFR-2 than sorafenib” value (VEGFR-2; ratio of IC50 values) was 4.1. The GI50 (OVCAR-3; Homo sapiens, OVCAR-3) was 4.91 µM, the GI% (OVCAR-3; single dose 10 μM, ovarian carcinoma) was 81.63% and the GI50 (UO-31) was 2.1 µM. It also gave a GI50 (DU-145; Homo sapiens, DU-145) of 5.15 µM, a GI% (DU-145; [5]) of 67.57% and a GI50 (SF-539; Homo sapiens, SF-539) of 3.97 µM. For the same molecule, the GI% (SF-539; single dose 10 μM, CNS cancer) was 85.47%, the GI50 (HCT-116; Homo sapiens, HCT-116) was 5.46 µM and the GI% (HCT-116; single dose 10 μM, colon cancer) was 76.76%. The GI50 (U251; Homo sapiens, U-251) was 3.72 µM, the GI% (U251; single dose 10 μM, CNS cancer) was 85.69% and the GI50 (Colon cancer subpanel; [2]) was 5.02 µM. It also gave a Selectivity index (Colon cancer subpanel; [3]) of 0.83, a GI50 (SK-MEL-2; Homo sapiens, SK-MEL-2) of 2.53 µM and a GI% (SK-MEL-2; single dose 10 μM, melanoma) of 99.44%. The GI50 (SK-MEL-28; Homo sapiens, SK-MEL-28) was 4.58 µM and the GI% (SK-MEL-28; single dose 10 μM, melanoma) was 80.99%.
